According to ChEMBL document CHEMBL5260849, “Current advances in Vibrio harveyi quorum sensing as drug discovery targets” (Eur J Med Chem, 2020):

Molecular target: T1, HTH-type transcriptional regulator LuxR (Vibrio harveyi) (UniProt P21308)
T1 sequence (whole entry): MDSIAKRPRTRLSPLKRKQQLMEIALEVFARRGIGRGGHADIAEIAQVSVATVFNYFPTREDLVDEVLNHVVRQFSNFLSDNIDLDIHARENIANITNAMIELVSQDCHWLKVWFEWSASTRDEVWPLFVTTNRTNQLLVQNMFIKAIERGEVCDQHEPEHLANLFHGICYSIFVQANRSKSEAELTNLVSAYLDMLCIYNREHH
Assay: Inhibition of LuxR quorum sensing system in Vibrio harveyi BB120 assessed as inhibition of autoinducer-2 induced luxR activity at 100 uM for 16 hrs by bioluminescence assay
Settings: not given

First: O=C/C=C/c1ccccc1[N+](=O)[O-]
Second: COc1ccccc1/C=C/C=O
The inhibition of the first is higher: 62% for the first, 14% for the second.

Going from CN(C)c1ccc(/C=C/C=O)cc1 to COc1ccc(/C=C/C=O)cc1, the inhibition rises from 17% to 34%.

First: CCCC/C=C/C(=O)O
Second: CCCC/C=C/C(C)=O
The inhibition of the first is lower: 36% for the first, 80% for the second.

Compared with CC(=O)/C=C/c1ccccc1, NC(=O)/C=C/c1ccccc1 is lower in inhibition: 78% for the first, 61% for the second.

Compared with CCCCCC/C=C/C(=O)CO, CCCCCC/C=C/C(C)=O is higher in inhibition: 17% for the first, 100% for the second.

Going from CCC/C=C/C=O to CCCC/C=C/C=O, the inhibition rises from 35% to 55%.

Going from CCCCC/C=C/C(C)=O to CCCCCC/C=C/C(=O)OC, the inhibition falls from 100% to 59%.

Compared with CCCCCC/C=C/C=O, CCCCCCC/C=C/C=O is lower in inhibition: 100% for the first, 90% for the second.

Going from CC(=O)C1=CCCCC1 to CC(=O)CCc1ccccc1, the inhibition falls from 16% to 13%.

Compared with O=C/C=C/c1ccc([N+](=O)[O-])cc1, O=C/C=C/c1ccccc1 is higher in inhibition: 33% for the first, 65% for the second.

First: CC/C=C/C=O
Second: CCCCC/C=C/C=O
The inhibition of the first is lower: 58% for the first, 71% for the second.

Going from O=C/C=C/c1ccc(Cl)c(C(F)(F)F)c1 to O=C/C=C/c1ccc(Cl)c(Cl)c1, the inhibition rises from 97% to 99%.

First: CCCCCCCCCC/C=C/C=O
Second: CCCCCCCCC/C=C/C=O
The inhibition of the first is lower: 56% for the first, 87% for the second.

Compared with CCCCCCCC/C=C/C=O, O=C/C=C/c1c(F)c(F)c(F)c(F)c1F is higher in inhibition: 94% for the first, 95% for the second.

Molecule CS(=O)(=O)/C=C/c1ccccc1 has an inhibition of 73%.

Molecular target: Autoinducer 2-binding periplasmic protein LuxP (Vibrio harveyi) (UniProt P54300)
Sequence (P54300 whole entry): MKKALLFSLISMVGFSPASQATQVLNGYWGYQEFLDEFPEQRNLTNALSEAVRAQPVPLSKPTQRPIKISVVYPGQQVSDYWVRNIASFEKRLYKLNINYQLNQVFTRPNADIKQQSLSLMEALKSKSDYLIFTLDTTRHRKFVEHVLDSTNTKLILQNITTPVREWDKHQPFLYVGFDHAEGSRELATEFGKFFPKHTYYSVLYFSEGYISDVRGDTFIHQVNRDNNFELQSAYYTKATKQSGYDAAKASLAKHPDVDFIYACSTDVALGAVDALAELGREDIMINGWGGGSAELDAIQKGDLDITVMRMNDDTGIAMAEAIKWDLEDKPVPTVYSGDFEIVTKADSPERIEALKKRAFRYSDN
Assay: Antagonist activity against LuxP signalling in Vibrio harveyi BB170 assessed as inhibition of AI-2 regulated bioluminescence at 20 to 40 uM and measured after 2.5 hrs by bioluminescence assay
Settings: filed as antagonist, dose 20-40 µM

CC(C)CC(=O)C(=O)C(O)CO (configuration not stated) and CC(C)C(=O)C(=O)C(O)CO (configuration not stated) are the same in inhibition: 50% for the first, 50% for the second.

Test system: not listed separately
Assay: Inhibition of quorum-sensing system in Vibrio harveyi MM32 assessed as inhibition of AI-2 mediated bioluminescence incubated for 4 to 6 hrs by bioluminescence assay
Settings: not given

Compared with CSC1=CS(=O)(=O)c2ccccc21, C=CCOC(=O)C1=CS(=O)(=O)c2ccccc21 is 13-fold lower in IC50: 41 µM for the first, 3.06 µM for the second.

Brc1ccc(-c2cnco2)cc1 and Brc1ccc2ncsc2c1 are within 1.5-fold of each other in IC50: 60 µM for the first, 88 µM for the second.

Compared with CSc1nccc(Oc2ccccc2Cl)n1, Cn1cnnc1SCC(=O)Nc1nc2ccccc2s1 is 1.6-fold higher in IC50: 3.42 µM for the first, 5.51 µM for the second. The first is the more potent here.

Going from O=C(O)c1ccc(-c2c(Cl)cc([N+](=O)[O-])cc2Cl)o1 to Fc1ccccc1-c1ccc(CNCc2ccco2)o1, the IC50 falls from 40.1 µM to 14.8 µM (2.7-fold). The second is the more potent here.

Going from NC(=S)CS(=O)(=O)c1ccccn1 to CC1=CCn2nc(N)c(/N=N/c3ccccc3)c2N1, the IC50 falls from 55 µM to 19.8 µM (2.8-fold). The second is the more potent here.

CC(C)(C)S(=O)(=O)CC#N gave an IC50 of 110 µM.

Test system: Vibrio harveyi
Assay: Inhibition of biofilm formation in Vibrio harveyi BB120 at 500 uM for 24 hrs by crystal violet assay
Assay type: functional
Settings: not given

Going from COc1cc(O)cc([C@@H]2CC(=O)c3c(OC)cc(O)cc3O2)c1 to COc1cc(/C=C/C(=O)c2c(O)cc(O)cc2OC)ccc1O, the inhibition at 500 µM falls from 68% to 60%.

Molecular target: T2, Autoinducer 1 sensor kinase/phosphatase LuxN (Vibrio harveyi) (UniProt P0C5S6)
T2 sequence (whole entry): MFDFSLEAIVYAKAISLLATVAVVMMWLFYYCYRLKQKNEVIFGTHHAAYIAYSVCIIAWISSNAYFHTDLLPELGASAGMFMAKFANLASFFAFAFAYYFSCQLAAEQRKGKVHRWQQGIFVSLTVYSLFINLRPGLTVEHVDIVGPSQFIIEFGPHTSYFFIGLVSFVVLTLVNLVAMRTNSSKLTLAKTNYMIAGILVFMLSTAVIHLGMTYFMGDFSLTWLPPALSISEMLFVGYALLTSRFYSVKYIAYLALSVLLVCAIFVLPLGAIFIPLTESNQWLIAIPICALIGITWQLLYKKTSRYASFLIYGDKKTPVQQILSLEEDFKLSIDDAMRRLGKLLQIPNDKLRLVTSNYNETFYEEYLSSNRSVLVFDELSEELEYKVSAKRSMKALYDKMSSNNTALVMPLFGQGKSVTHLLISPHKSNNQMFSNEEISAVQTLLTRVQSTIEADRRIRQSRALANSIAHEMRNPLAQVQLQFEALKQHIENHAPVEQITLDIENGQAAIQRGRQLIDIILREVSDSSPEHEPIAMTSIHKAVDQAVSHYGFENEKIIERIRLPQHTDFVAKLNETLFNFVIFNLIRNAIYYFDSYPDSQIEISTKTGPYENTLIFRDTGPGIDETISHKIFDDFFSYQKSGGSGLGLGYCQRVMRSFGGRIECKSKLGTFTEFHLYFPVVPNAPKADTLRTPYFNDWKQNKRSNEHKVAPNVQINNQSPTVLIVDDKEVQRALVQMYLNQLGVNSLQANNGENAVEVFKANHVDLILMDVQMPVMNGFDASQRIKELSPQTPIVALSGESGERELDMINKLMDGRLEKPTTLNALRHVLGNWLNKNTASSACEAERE
Assay: Inhibition of LuxN quorum sensing signaling in Vibrio harveyi BB886 assessed as inhibition of N-acylhomoserine lactone (HAI-1) activity by measuring bioluminescence for every 20 mins by autoinducer bioassay
Settings: not given

CC(C)=CCC/C(C)=C/COc1c2ccoc2cc2oc(=O)ccc12 and C/C(=C\COc1c2ccoc2cc2oc(=O)ccc12)CCC(O)C(C)(C)O (configuration not stated) are the same in inhibition: 96.7% for the first, 96.7% for the second.

Molecular target: T3, Autoinducer 1 sensor kinase/phosphatase LuxN (Vibrio harveyi, UniProt P0C5S6)
T3 sequence (P0C5S6 whole entry): T2 sequence (whole entry)
Assay: Antagonist activity at LuxN signaling in Vibrio harveyi HLS253 assessed as inhibition of 3-hydroxybutanoyl homoserine lactone induced bioluminescence by autoinducer based bioluminescence assay
Settings: not given

CC(=O)N1CCc2cc(S(=O)(=O)NC(CC(C)C)C(=O)CCc3ccc(O)cc3)ccc21 (configuration not stated) and O=C(c1ccc(O)cc1)c1ccc(S(=O)(=O)c2ccc(O)cc2)cc1 are within 1.5-fold of each other in IC50: 2.7 µM for the first, 2.6 µM for the second.

Molecular target: T3, Autoinducer 1 sensor kinase/phosphatase LuxN
Assay: Antagonist activity against Vibrio harveyi BB120 LuxN assessed as inhibition of AI-2 regulated bioluminescence and measured after 6 hrs by bioluminescence assay
Settings: not given

Nc1ncnc2c1ncn2[C@@H]1O[C@H](CO)[C@@H](N)[C@H]1O and [N-]=[N+]=N[C@H]1[C@@H](O)[C@H](n2cnc3c(N)ncnc32)O[C@@H]1CO are within 1.5-fold of each other in IC50: 2.9 µM for the first, 2.7 µM for the second.

Test system: not listed separately
Assay: Inhibition of quorum-sensing system in Vibrio harveyi BB170 assessed as inhibition of LuxU induced bioluminescence by bioluminescence assay
Set-up: concentration or dose not given beside the values
Settings: concentration not given here

C[C@@H]1O[C@@H](O[C@H]2[C@H](Oc3cc(O)c4c(c3)OC(c3ccc(O)cc3)CC4=O)O[C@H](CO)[C@@H](O)[C@@H]2O)[C@H](O)[C@H](O)[C@H]1O (some centres not stated) and C[C@@H]1O[C@@H](O[C@H]2[C@H](Oc3cc(O)c4c(c3)OC(c3ccc(O)c(O)c3)CC4=O)O[C@H](CO)[C@@H](O)[C@@H]2O)[C@H](O)[C@H](O)[C@H]1O (some centres not stated) cannot be ordered by inhibition: 40% for the first, greater than 20% for the second.

COc1ccc(-c2cc(=O)c3c(OC)c(OC)c(OC)cc3o2)cc1OC and O=c1cc(-c2ccc(O)cc2)oc2cc(O)cc(O)c12 are the same in inhibition: 60% for the first, 60% for the second.

O=c1c(O)c(-c2ccc(O)c(O)c2)oc2cc(O)cc(O)c12 and O=c1c(O)c(-c2ccc(O)cc2)oc2cc(O)cc(O)c12 cannot be ordered by inhibition: greater than 99% for the first, greater than 99% for the second.

Compared with COc1ccc(C2CC(=O)c3c(O)cc(O[C@@H]4O[C@H](CO[C@@H]5O[C@@H](C)[C@H](O)[C@@H](O)[C@H]5O)[C@@H](O)[C@H](O)[C@H]4O)cc3O2)cc1O (some centres not stated), COc1ccc(C2CC(=O)c3c(O)cc(O[C@@H]4O[C@H](CO)[C@@H](O)[C@H](O)[C@H]4O[C@@H]4O[C@@H](C)[C@H](O)[C@@H](O)[C@H]4O)cc3O2)cc1O (some centres not stated) is higher in inhibition: 10% for the first, greater than 20% for the second.

In the case of O=C1CC(c2ccc(O)cc2)Oc2cc(O)cc(O)c21 (configuration not stated), the inhibition is reported as 80%.

Test system: Vibrio harveyi
Assay: Inhibition of Vibrio harveyi BB886 LuxS assessed as inhibition of autoinducer-2 induced QS activity at 100 uM for 16 hrs by bioluminescence assay
Settings: not given

With O=C1C=C/C(=C/Br)O1 the inhibition was 96%.

Molecular target: LuxP/Q (Vibrio harveyi) (UniProt P54300+P54302)
Assay: Antagonist activity against Vibrio harveyi BB886 LuxPQ assessed as inhibition of AI-2 induced bioluminescence at 40 uM and measured after 6 hrs by bioluminescence assay
Assay type: protein-complex assay
Settings: not given

COc1ccc(CCC(=O)NC[C@H]2[C@@H](O)[C@H](n3cnc4c(N)ncnc43)O[C@@H]2CO)cc1 and COc1cccc(/C=C/C(=O)N[C@H]2[C@@H](O)[C@H](n3cnc4c(N)ncnc43)O[C@@H]2CO)c1 are the same in inhibition: 20% for the first, 20% for the second.

Same assay, conditions: filed as antagonist

Compared with COc1ccc(CCC(=O)N[C@@H]2[C@@H](CO)OC(OC)[C@@H]2O)cc1 (some centres not stated), COc1ccc(CCC(=O)N[C@H]2[C@@H](O)[C@H](n3cnc4c(N)ncnc43)O[C@@H]2CO)cc1 is higher in inhibition: 40% for the first, 80% for the second.

Compared with NC(=S)CS(=O)(=O)c1cccs1, COC(=O)c1ccc(B(O)O)cc1 is higher in inhibition: 60% for the first, greater than 80% for the second.

Test system: Vibrio harveyi
Assay: Inhibition of CAI-1 mediated quorum-sensing in Vibrio harveyi JMH626 assessed as inhibition of CAI-1 mediated luminescence at 2 uM by bioluminescence assay
Settings: not given

In the case of CCCCCCC[C@@H](C/C=C/CCC(=O)O)OC, the inhibition is reported as 100%.

Molecular target: LuxP/Q (Vibrio harveyi, UniProt P54300+P54302)
Sequence (P54300 whole entry): as the sequence (P54300 whole entry) above
Sequence (P54302 whole entry): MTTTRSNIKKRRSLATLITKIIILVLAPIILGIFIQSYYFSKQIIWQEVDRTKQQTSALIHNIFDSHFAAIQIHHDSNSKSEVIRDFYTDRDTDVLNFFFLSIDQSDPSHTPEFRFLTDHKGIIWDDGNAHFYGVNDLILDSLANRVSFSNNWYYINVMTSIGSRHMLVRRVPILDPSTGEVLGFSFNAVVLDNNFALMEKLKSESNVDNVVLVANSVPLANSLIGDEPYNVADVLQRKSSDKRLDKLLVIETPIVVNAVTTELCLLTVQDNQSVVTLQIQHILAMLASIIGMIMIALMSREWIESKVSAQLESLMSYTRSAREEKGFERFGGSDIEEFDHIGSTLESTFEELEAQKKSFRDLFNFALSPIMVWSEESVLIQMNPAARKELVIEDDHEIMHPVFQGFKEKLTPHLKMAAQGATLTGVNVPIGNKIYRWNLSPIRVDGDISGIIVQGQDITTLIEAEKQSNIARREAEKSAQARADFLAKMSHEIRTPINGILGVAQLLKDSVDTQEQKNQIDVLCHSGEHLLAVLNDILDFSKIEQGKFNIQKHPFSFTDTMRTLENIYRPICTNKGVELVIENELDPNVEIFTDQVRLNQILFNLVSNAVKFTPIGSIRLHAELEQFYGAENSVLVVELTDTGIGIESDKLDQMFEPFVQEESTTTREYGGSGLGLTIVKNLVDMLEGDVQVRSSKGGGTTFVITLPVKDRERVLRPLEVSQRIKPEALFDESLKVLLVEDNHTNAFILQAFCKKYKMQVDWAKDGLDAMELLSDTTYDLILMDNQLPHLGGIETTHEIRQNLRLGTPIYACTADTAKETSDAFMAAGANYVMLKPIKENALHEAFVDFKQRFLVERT
Assay: Antagonist activity against LuxPQ quorum sensing system in Vibrio harveyi MM32 assessed as inhibition of luminescence intensity incubated for 3 to 4 hrs by luminescence microplate reader analysis
Assay type: protein-complex assay
Settings: not given

Going from Cc1ccc(B(O)O)cc1F to Cc1ccc(B(O)O)c(F)c1, the IC50 falls from 9 µM to 4 µM (2.2-fold).

N#Cc1ccc(B(O)O)cc1 and COC(=O)c1ccc(B(O)O)cc1 are within 1.5-fold of each other in IC50: 6 µM for the first, 5 µM for the second.

OB(O)c1ccc(OCc2ccccc2)cc1 showed an IC50 of 4 µM.

Test system: not listed separately
Assay: Inhibition of quorum-sensing system in Vibrio harveyi BB170 assessed as inhibition of AI-2 at 0.1 to 10 uM and measured after 24 hrs by bioluminescence assay
Settings: dose 0.1-10 µM

CCCCCCCC/C=C\CCCCCCCC(=O)O and CCCCC/C=C\C/C=C\CCCCCCCC(=O)O cannot be ordered by inhibition: greater than 75% for the first, greater than 99% for the second.

Compared with CCCCCCCCCCCCCCCCCC(=O)O, CCCCCCCCCCCCCCCC(=O)O is lower in inhibition: greater than 25% for the first, 25% for the second.

Test system: not listed separately
Assay: Toxicity in […] mouse with abdominal infection assessed survival rate at 4.5 microg/g,ip and measured after 4 days
Settings: in vivo, dose 4.5 µg/g, time 4 day

For CCCCC1=C(Br)/C(=C/Br)OC1=O, the survival at 96 h was 90%.
